One series relates to Calu-6 cells. The series can be described thus: Calu-6 (Kras Q61K) antiproliferative activity experiment (CellTiterGlo). The class given is cell-based, human. Conditions: cultured three days. The procedure:
Experimental Embodiment 1: Calu-6 (Kras^Q61K) Antiproliferative Activity Experiment
(1) cell culture medium: 88% RPMI-1640, 10% fetal bovine serum, 1% L-glutamine and 1% penicillin-streptomycin;
(2) culture medium, trypsin and DPBS were preheated in a 37° C. water bath;
(3) the original culture medium was removed in the cell culture flask and washed once with 6 mL of PBS;
(4) 3.5 mL of trypsin was added to the cell culture flask, and the cell culture flask was shaken gently, and the trypsin was removed after full contact with the cell, and then the culture flask was placed into a 37° C. incubator containing 5% CO2 for about 1 minute;
(5) the cells were resuspended with 10 mL of cell culture medium, and about 0.6 mL of cell suspension (ViCell XR) was taken out for counting;
(§1) (6) the cell suspension was diluted with culture medium to a cell density required for plating of 2.5×10^4 cells per mL;
(7) 100 μL of PBS was added to each well around the cell plate, and 40 μL of cell suspension was added to the other wells, and placed in a 37° C. incubator containing 5% CO2 for overnight culture.
(§2) (8) The required cell amount and culture medium were taken based on the new T75 culture flask for continued culture.
(§3) (1) the compound to be tested was prepared into […] solution with DMSO;
(2) 9 μL of the compound was taken and added to Echo shallow well plate (Labcyte, #LP-0200), and the shallow well plate was centrifuged at 1000 rpm for 10 seconds;
(3) DPBS at the periphery of the cell plate was sucked out;
(4) the compound was gradient diluted and administrated with Echo, and 10 concentration gradients of each compound were diluted, and 100 nL of the diluent was added to the 384 cell plate separately, and then the cell plate was put back to the incubator and cultured for three days;
(5) then 100 μL of DPBS was added to the periphery of the cell plate.
(1) CTG was added and the plate was read: 20 μL of CellTiterGlo was added to each well of the cell plate, and the cell plate was shaken in the dark for 10 min. and the plate was read on Envision.
In general terms: ATP-based viability assays read luminescence as a measure of living cells.

Series [1] concerns ERK phosphorylation in Calu-6 cells. The series can be described thus: Calu-6 (Kras Q61K) ERK phosphorylation inhibition experiment (HTRF). It is filed as cell-based, human. The settings on record: 1 hour incubation with compound. As for the experimental part: Experimental Embodiment 5: Calu-6 (Kras^Q61K) ERK Phosphorylation Inhibition Experiment
1) the cells were resuscitated and cultured to logarithmic growth phase, digested with trypsin, seeded in 96-well plates with 30000 cells per well, and incubated overnight in an incubator.
2) 1 μL of gradient compound dissolved with DMSO was added to a 96-well plate and placed back into an incubator to incubate for 1 hour.
3) The cell plates were removed out, and the culture medium was poured off, and 50 μL of cell lysate (with 1% blocking peptide) was added to each well.
4) The lysate plate was mixed at 500 rpm and incubated and lysed at room temperature for 30 minutes.
5) The antibody mixture in the kit was prepared at a ratio of 1:1:38.
6) 16 μL of cell lysate was transferred to the HTRF plate per well, then the 4 μL of the configured antibody mixture was added thereto.
7) After incubation overnight, the plate was read with Envision, and the fitted curve was obtained according to the ratio (the ratio of fluorescence intensity of […]) and the EC50 was calculated according to the four-parameter fitting formula Y=Bottom+(Top−Bottom)/(1+10^((Log EC50−X)*HillSlope)) of Graphpad.

Series [2] in a line: Pharmacokinetics of single intravenous and oral administration in mice. The class given is in vivo. The settings on record: 50 mg/kg/day, single oral administration, 50 mg/kg/day; for Cmax: read-out: Maximum plasma drug concentration Cmax; for Tmax: read-out: Peak time Tmax. As for the experimental part:
Experimental Embodiment 6: Pharmacokinetics Study of Single Intravenous and Oral Administration in Mice and Dogs
This experiment was aimed to study the pharmacokinetics of the test compound in mice and dogs in vivo after a single oral administration of the compound.
After intravenous or oral administration, blood samples were collected and the actual blood collection time was recorded. After the blood sample was collected, the sample was immediately transferred to a labeled centrifuge tube containing K2-EDTA, and then the plasma was taken after centrifugation. The plasma was transferred to a precooled centrifuge tube, quickly frozen in dry ice, and stored in an ultra-low temperature refrigerator at −70±10° C. until LC-MS/MS analysis.
Pharmacokinetic software was used to process the plasma drug concentration data of the compound with […] model. The peak concentration (Cmax) and peak time (Tmax), as well as the end time of quantification, were obtained directly from the plasma drug concentration-time graph. The following pharmacokinetic parameters were calculated by logarithmic linear trapezoidal method: half-life (T1/2), apparent distribution volume (Vdss) and clearance rate (Cl), and the area under the time-plasma concentration curve from 0 to the end time point (AUC0-last).

A further series has as its system HCT116 cells. The series can be described thus: HCT116 (Kras G13D) antiproliferative activity experiment (CellTiter Glo). The class given is cell-based. Conditions: Homo sapiens, HCT-116, 72 h, cultured 3 days. As for the experimental part:
Experimental Embodiment 2: HCT116 (Kras^G13D) Antiproliferative Activity Experiment
(1) cell culture medium: 89% Mc′Coy 5A, 10% fetal bovine serum and 1% penicillin-streptomycin;
(2) culture medium and trypsin were preheated in a 37° C. water bath;
(3) the culture medium was removed in the cell culture flask and washed once with 1 mL of trypsin;
(4) 1 mL of trypsin was added to the cell culture flask, and the cell culture flask was shaken gently, and the trypsin was removed after full contact with the cell, and then the culture flask was placed into a 37° C. incubator containing 5% CO2 for about 1 minute;
(5) the cells were resuspended with 2 mL of cell culture medium, and about 0.01 mL of cell suspension was taken out for counting;
as §1
(7) 100 μL of culture medium was added to each well around the cell plate, and 80 μL of cell suspension was added to the other wells, and placed in a 37° C. incubator containing 5% CO2 for overnight culture.
as §2, §3
(2) 9 concentration gradients and 3-fold dilutions were performed on the compounds, that is, a double-duplicate experiment was set from 6 mmol to 2.7 μmol, and 78 μL of culture medium was added to the middle plate, and then 2 μL of gradient diluted compound per well was transferred to the middle plate according to the corresponding position, and after mixing, 20 μL per well was transferred to the cell plate, and the final concentration of the compound transferred to the cell plate was 30 μmol to 13.7 nmol. The cell plate was placed in a carbon dioxide incubator and cultured for another 3 days.
(1) CTG was added and the plate was read: 20 μL of CellTiter Glo was added to each well of the cell plate, and the cell plate was shaken in the dark for 10 min;
(2) plates were read on Victor Nivo.
The equation (Sample-Min)/(Max-Min)*100% was used to convert the original data into inhibition rate, and the IC50 value could be obtained by curve fitting with four parameters (obtained by “log (inhibitor) vs. response—variable slope” mode in GraphPad Prism).

In another series the test system is A375 cells. As to the kind of experiment: A375 (BRAF V600E) antiproliferative activity experiment (CellTiter-glo). It is filed as cell-based. Conditions: Homo sapiens, A-375, 120 h, cultured 5 days. As for the experimental part:
Experimental Embodiment 3: A375 (BRAF^V600E) Antiproliferative Activity Experiment
Cell line A375 (purchased from Procell). DMEM culture medium, penicillin/streptomycin antibiotics were purchased from Vicente, and fetal bovine serum was purchased from Biosera. CellTiter-glo (cell viability chemiluminescence detection reagent) reagent was purchased from Promega.
A375 cells were seeded in a white 96 well plate with […] of cell suspension per well containing 2000 of A375 cells. The cell plate was placed in a carbon dioxide incubator and cultured overnight. The compound to be tested was diluted 3-fold to the 9th concentration with a pipette, that is, diluted from 6 mmol to 0.91 μmol, and a double-duplicate experiment was set-up, 78 μmol of culture medium was added to the middle plate, then 2 μmol of gradient dilution compound per well was transferred to the middle plate according to the corresponding position, and 20 μmol per well was mixed and transferred to the cell plate. The concentration of the compound transferred to the cell plate ranged from 30 μmol to 4.57 nmol. The cell plate was placed in a carbon dioxide incubator and cultured for 5 days. Another cell plate was prepared, and the signal value was read as the maximum value (max value in the following equation) on the day of administration to participate in data analysis, 25 μmol of cell viability chemiluminescence detection reagent was added to each well of the cell plate and incubated at room temperature for 10 minutes to stabilize the luminescence signal. A multi-marker analyzer reading was used. After the incubation of the cell plate added with the compound was finished, 25 μmol of cell viability chemiluminescence detection reagent was added to each well of the cell plate and incubated at room temperature for 10 minutes to stabilize the luminescence signal. A multi-marker analyzer reading was used.
(§4) The equation (Sample−Min)/(Max−Min)*100% was used to convert the original data into inhibition rate, and the IC50 value could be obtained by curve fitting with four parameters (obtained by “log (inhibitor) vs. response—variable slope” mode in GraphPad Prism).

The subject of the next series is Colo205 cells. As to the kind of experiment: Colo205 (BRAF V600E) antiproliferative activity experiment (CellTiter-glo). Conditions: Homo sapiens, COLO 205, 72 h, cultured 3 days. It is filed as cell-based. The procedure:
Experimental Embodiment 4: Colo205 (BRAF^V600E) Antiproliferative Activity Experiment
Cell line COLO205 (purchased from Procell), RPMI1640 culture medium, penicillin/streptomycin antibiotics were purchased from Vicente, and fetal bovine serum was purchased from Biosera. CellTiter-glo (cell viability chemiluminescence detection reagent) reagent was purchased from Promega.
COLO205 cells were seeded in a white 96-well plate with […] of cell suspension per well containing 3000 of COLO205 cells. The cell plate was placed in a carbon dioxide incubator and cultured overnight. The compound to be tested was diluted 3-fold to the 9th concentration with a pipette, that is, diluted from […], and a double-duplicate experiment was set-up. 78 μmol of culture medium was added to the middle plate, then 2 μmol of gradient dilution compound per well was transferred to the middle plate according to the corresponding position, and 20 μmol of per well was mixed and transferred to the cell plate. The concentration of the compound transferred to the cell plate ranged from 1 μmol to 0.15 nmol. The cell plate was placed in a carbon dioxide incubator and cultured for 3 days. Another cell plate was prepared, and the signal value was read as the maximum value (max value in the following equation) on the day of administration to participate in data analysis. 25 μmol of cell viability chemiluminescence detection reagent was added to each well of the cell plate and incubated at room temperature for 10 minutes to stabilize the luminescence signal. A multi-marker analyzer reading was used. After the incubation of the cell plate added with the compound was finished, 25 μmol of cell viability chemiluminescence detection reagent was added to each well of the cell plate and incubated at room temperature for 10 minutes to stabilize the luminescence signal. A multi-marker analyzer reading was used.
as §4

Read-outs that look alike come from different tables or passages of the source.

As usually defined, the IC50 is the point on the concentration scale where inhibition reaches its midpoint. Broadly, the Tmax is the time from dosing to the highest level. In the case of `COc1cc(F)cc([C@@H](CO)NC(=O)CN2Cc3ccc(-c4nc(NC5CCOCC5)ncc4Cl)cc3S2(=O)=O)c1` [Compound 10], the half-maximal inhibitory concentration (IC50) with Calu-6 cells (Homo sapiens, Calu-6, 72 h) amounted to 253 nM; in series [1] (Homo sapiens, Calu-6, 1 h) it was 3.03 nM. In addition, in series [2] (mouse, plasma, po), the Cmax stood at 34.6 µM. Further, the time of peak concentration (Tmax) in series [2] (mouse, plasma) was 1 h.
On to `COc1cc(F)cc([C@@H](CO)NC(=O)[C@@H](C)N2Cc3ccc(-c4nc(N[C@@H]5CCOC[C@H]5F)ncc4Cl)cc3S2(=O)=O)c1` [Compound 2], for which the concentration for half-maximal inhibition (IC50) in the series with Calu-6 cells (Homo sapiens, Calu-6, 72 h) worked out at 222 nM; in series [1] (Homo sapiens, Calu-6, 1 h) it was 13.1 nM.
On to `C[C@H](C(=O)N[C@H](CO)c1cc(F)cc(Cl)c1)N1Cc2ccc(-c3nc(NC4CCOCC4)ncc3Cl)cc2S1(=O)=O` [Compound 5], for which the IC50 in the series with Calu-6 cells (Homo sapiens, Calu-6, 72 h) was determined as 222 nM; in series [1] (Homo sapiens, Calu-6, 1 h) it was 6.92 nM. Besides, in series [2] (mouse, plasma, po), the Cmax turned out to be 90.5 µM. In addition, the time of peak concentration (Tmax) in series [2] (mouse, plasma) worked out at 0.75 h.
For the compound `COc1cc(F)cc([C@@H](C)NC(=O)[C@@H](CO)N2Cc3ccc(-c4nc(NC5CCOCC5)ncc4Cl)cc3S2(=O)=O)c1` [Compound 6], the 50% inhibitory concentration (IC50) in the series with Calu-6 cells (Homo sapiens, Calu-6, 72 h) came out at 508 nM.
In the case of `[2H]C1([2H])CC(Nc2ncc(Br)c(-c3ccc4c(c3)S(=O)(=O)N([C@H](C)C(=O)N[C@H](CO)c3cc(F)cc(OC)c3)C4)n2)CC([2H])([2H])O1` [Compound 12], the IC50 in the series with HCT116 cells was 112 nM; in the series on A375 cells, 16 nM; in series [1] (Homo sapiens, Calu-6, 1 h), 6.91 nM; with Colo205 cells it was 21 nM.
On to `COc1cc(F)cc([C@@H](CO)NC(=O)[C@@H](C)N2Cc3ccc(-c4nc(N[C@H]5CCOC[C@H]5F)ncc4Br)cc3S2(=O)=O)c1` [Compound 13], for which the IC50 in the series on HCT116 cells worked out at 138 nM; with A375 cells, 17 nM; in series [1] (Homo sapiens, Calu-6, 1 h), 7.84 nM; in the series with Colo205 cells it was 21 nM.
`C[C@H](C(=O)N[C@H](CO)c1cccc(N(C)C)n1)N1Cc2ccc(-c3nc(NC4CCOCC4)ncc3Cl)cc2S1(=O)=O` [Compound 8] showed a 50% inhibitory concentration (IC50) with Calu-6 cells (Homo sapiens, Calu-6, 72 h) of 313 nM.
For `COc1cc(F)cc([C@@H](CO)NC(=O)[C@@H](C)N2Cc3ccc(-c4nc(NC5CCOCC5)ncc4Cl)cc3S2(=O)=O)c1` [Compound 4], the 50% inhibitory concentration (IC50) with Calu-6 cells amounted to 239 nM. The IC50 in series [1] stood at 6.36 nM. In addition, in series [2], the “Peak time Tmax” value worked out at 1 h and the Cmax stood at 182 µM.
Regarding `Cc1cccc([C@@H](CO)NC(=O)[C@@H](C)N2Cc3ccc(-c4nc(NC5CCOCC5)ncc4Cl)cc3S2(=O)=O)c1` [Compound 7], the IC50 is 210 nM in the series with Calu-6 cells (Homo sapiens, Calu-6, 72 h) and 4.39 nM in series [1] (Homo sapiens, Calu-6, 1 h).
